Active and inactive are the calls of the source. No cut-off for these calls is given here.
Experiments:
HepG2 [1] = experiment: Induction of apoptosis in human HepG2 cells xenografted in Balb/c nude mouse assessed as reduction in Bcl-2 protein expression at 10 mg/kg, ip administered every 2 days for 20 days and measured every 2 days by immunohistochemistry; assay type: functional, organism-based
[2] = Cytotoxicity against human HHL5 cells assessed as reduction in cell viability incubated for 24 hrs by MTT assay; assay type: cell-based; conditions: HHL-5, 24 h
Mus musculus = experiment: Antiinflammatory activity in human HepG2 cells xenografted Balb/c nude mouse assessed as reduction in TNFalpha protein expression at 10 mg/kg, ip administered every 2 days for 20 days and measured every 2 days by immunohistochemistry; assay type: functional, organism-based
SMMC-7721 = experiment: Cytotoxicity against human SMMC7721 cells assessed as reduction in cell viability incubated for 24 hrs by MTT assay; assay type: functional, cell-based; conditions: for IC50: SMMC-7721, 24 h
QGY-7703 = experiment: Cytotoxicity against human QGY7703 cells assessed as reduction in cell viability incubated for 24 hrs by MTT assay; assay type: functional, cell-based; conditions: for IC50: QGY-7703, 24 h
HepG2 [3] = experiment: Antitumor activity against human HepG2 cells xenografted in Balb/c nude mouse assessed as tumor volume level at 10 mg/kg, ip administered every 2 days for 20 days and measured every 2 days; assay type: functional
HepG2 [4] = experiment: Cytotoxicity against human HepG2 cells assessed as reduction in cell viability incubated for 24 hrs by MTT assay; assay type: functional, cell-based; conditions: for IC50: HepG2, 24 h
HepG2 [5] = experiment: Antitumor activity against human HepG2 cells xenografted in Balb/c nude mouse assessed as induction of incomplete cells at 10 mg/kg, ip administered every 2 days for 20 days and measured every 2 days by H and E staining based assay; assay type: functional, organism-based
HepG2 [6] = experiment: Antitumor activity against human HepG2 cells xenografted in Balb/c nude mouse assessed as induction of wrinkled abnormalities on cell morphology at 10 mg/kg, ip administered every 2 days for 20 days and measured every 2 days by H and E staining based assay; assay type: functional, organism-based
L02 = experiment: Cytotoxicity against human LO2 cells assessed as reduction in cell viability incubated for 24 hrs by MTT assay; assay type: cell-based; conditions: L02, 24 h
RAW264.7 [7] = experiment: Antiinflammatory activity in mouse RAW264.7 cells assessed as inhibition of LPS-stimulated IL-6 production 6.0 uM preincubated for 2 hrs followed by LPS stimulaton measured after 22 hrs by ELISA relative to control; assay type: functional
RAW264.7 [8] = experiment: Antiinflammatory activity in mouse RAW264.7 cells assessed as inhibition of LPS-stimulated TNF-alpha production at 6.0 uM preincubated for 2 hrs followed by LPS stimulaton measured after 22 hrs by ELISA relative to control; assay type: functional
RAW264.7 [9] = experiment: Cytotoxicity against mouse RAW264.7 cells assessed as reduction in cell viability at 6.0 uM incubated for 24 hrs by MTT assay; assay type: cell-based; conditions: raw264.7, 24 h

Structure (SMILES)	Activity (HepG2 [1])	IC50 [2] [µM]	Activity (Mus musculus)	Activity (SMMC-7721)	IC50 (SMMC-7721) [µM]	Activity (QGY-7703)	IC50 (QGY-7703) [µM]	Activity (HepG2 [3]) [mm3]	Activity (HepG2 [4])	Activity (HepG2 [5])	Activity (HepG2 [6])	IC50 (L02) [µM]	IC50 (HepG2 [4]) [µM]	inhibition (INH) (RAW264.7 [7]) [%]	inhibition at 6 µM (RAW264.7 [8]) [%]	Activity (RAW264.7 [9])	inhibition (RAW264.7 [7])	inhibition (RAW264.7 [8])
COc1cccc2c1C(=O)c1c(O)c3c(c(O)c1C2=O)C[C@@](O)(C(=O)CO)C[C@@H]3O[C@H]1C[C@H](N)[C@H](O)[C@H](C)O1 [DOXORUBICIN]	Active	12.2	Active	Dose-dependent effect	2.75	Dose-dependent effect	1.37	<200	Dose-dependent effect	Active	Active							
CN1C/C(=C\c2ccc(C(F)(F)F)cc2)C(=O)/C(=C/c2cccnc2)C1		14.2			4.83		1.66					15.6	4.79	<30	< 30	Non-Toxic		
O=C1/C(=C/c2cccnc2)CN(S(=O)(=O)c2ccc(F)cc2)C/C1=C\c1ccccc1F		12.6			9.9		15.3					15.6	15.6			Non-Toxic	inactive	inactive
Cc1ccc(S(=O)(=O)N2C/C(=C\c3cccnc3)C(=O)/C(=C/c3ccccc3F)C2)cc1		15.3			10.3		9.7					14.9	4.2			Non-Toxic	Active	Active

— ChEMBL document CHEMBL4339189, “Dissymmetric pyridyl-substituted 3,5-bis(arylidene)-4-piperidones as anti-hepatoma agents by inhibiting NF-κB pathway activation” (Eur J Med Chem, 2019)
